Experimental data published in the supplement of paper PMC10307832.

What was measured:
Assay in all cases: relative viability (nuclei count vs DMSO), 5 days (fraction); higher = more cells survive
Decitabine + Pictilisib = compound: Nc1ncn([C@H]2C[C@H](O)[C@@H](CO)O2)c(=O)n1 [Decitabine] + CS(=O)(=O)N1CCN(Cc2cc3nc(-c4cccc5[nH]ncc45)nc(N4CCOCC4)c3s2)CC1 [Pictilisib] (partner 1 µM)
How it was run: (§1)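 For relative viability, nuclei counts in treated wells were divided by those in vehicle wells. Lung cancer cell lines had been pin-tool dosed in 1536-well plates the day after seeding and cultured for 5 days, then fixed and stained in one step (final 0.05% Triton X-100, 1% formaldehyde, 1 ug/ml Hoechst) and imaged at 4×. Doses were one drug alone or a fixed anchor-drug dose plus five library-drug doses (not always all listed) in √10 steps, and values are duplicate-plate medians.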

Cediranib + Pictilisib = compound: COc1cc2c(Oc3ccc4[nH]c(C)cc4c3F)ncnc2cc1OCCCN1CCCC1 [Cediranib] + CS(=O)(=O)N1CCN(Cc2cc3nc(-c4cccc5[nH]ncc45)nc(N4CCOCC4)c3s2)CC1 [Pictilisib] (partner 1 µM)
How it was run: as §1

Decitabine + OSI-027 = compound: Nc1ncn([C@H]2C[C@H](O)[C@@H](CO)O2)c(=O)n1 [Decitabine] + COc1cccc2cc(-c3nc([C@H]4CC[C@H](C(=O)O)CC4)n4ncnc(N)c34)[nH]c12 [OSI-027] (partner 0.5 µM)
How it was run: as §1

Decitabine + Phenformin = compound: Nc1ncn([C@H]2C[C@H](O)[C@@H](CO)O2)c(=O)n1 [Decitabine] + N=C(N)NC(=N)NCCc1ccccc1 [Phenformin] (partner 250 µM)
How it was run: as §1

| Cell Line | relative viability (Decitabine + Pictilisib; first compound 0.04 µM) | relative viability (Decitabine + Pictilisib; first compound 0.1265 µM) | relative viability (Decitabine + Pictilisib; first compound 0.4 µM) | relative viability (Decitabine + Pictilisib; first compound 1.265 µM) | relative viability (Decitabine + Pictilisib; first compound 4 µM) | relative viability (Cediranib + Pictilisib; first compound 0.04 µM) | relative viability (Cediranib + Pictilisib; first compound 0.1265 µM) | relative viability (Cediranib + Pictilisib; first compound 0.4 µM) | relative viability (Cediranib + Pictilisib; first compound 1.265 µM) | relative viability (Cediranib + Pictilisib; first compound 4 µM) | relative viability (Decitabine + OSI-027; first compound 0.04 µM) | relative viability (Decitabine + OSI-027; first compound 0.1265 µM) | relative viability (Decitabine + OSI-027; first compound 0.4 µM) | relative viability (Decitabine + OSI-027; first compound 1.265 µM) | relative viability (Decitabine + OSI-027; first compound 4 µM) | relative viability (Decitabine + Phenformin; first compound 0.04 µM) | relative viability (Decitabine + Phenformin; first compound 0.1265 µM) | relative viability (Decitabine + Phenformin; first compound 0.4 µM) | relative viability (Decitabine + Phenformin; first compound 4 µM) | relative viability (Decitabine + Phenformin; first compound 1.265 µM) |
| --- | --- | --- | --- | --- | --- | --- | --- | --- | --- | --- | --- | --- | --- | --- | --- | --- | --- | --- | --- | --- |
| 201T | 0.655 | 0.817 | 0.93 | 0.695 | 0.531 | 0.725 | 0.699 | 0.639 | 0.632 | 0.7 | 0.72 | 0.681 | 0.62 | 0.464 | 0.403 | 0.42 | 0.454 | 0.518 | 0.409 | – |
| A549 | 0.444 | 0.49 | 0.37 | 0.256 | 0.166 | 0.538 | 0.628 | 0.485 | 0.477 | 0.532 | – | – | – | – | – | 0.145 | 0.139 | 0.157 | 0.0645 | 0.0732 |
| A-427 | 0.42 | 0.663 | 0.244 | 0.359 | 0.219 | 0.716 | – | 0.608 | 0.573 | 0.707 | 0.266 | 0.324 | 0.26 | 0.213 | 0.246 | 0.239 | 0.265 | 0.19 | 0.164 | 0.18 |
| ABC-1 | 0.812 | 0.728 | 0.812 | 0.443 | 0.505 | 0.786 | 0.566 | 0.69 | – | 0.737 | 0.554 | 0.387 | 0.492 | 0.424 | 0.37 | 0.238 | 0.231 | 0.25 | 0.212 | 0.252 |
| BEN | 0.545 | 0.543 | 0.396 | 0.349 | 0.324 | 0.584 | 0.497 | 0.509 | 0.425 | 0.504 | 0.297 | 0.315 | 0.273 | 0.295 | 0.289 | 0.28 | 0.261 | 0.259 | 0.245 | 0.239 |
| CAL-12T | 0.299 | 0.499 | 0.332 | 0.339 | 0.301 | 0.431 | – | 0.438 | 0.319 | 0.501 | 0.558 | 0.612 | – | 0.305 | 0.268 | 0.517 | 0.633 | – | 0.339 | 0.372 |
| COR-L23 | 0.527 | 0.619 | 0.239 | 0.178 | 0.172 | 0.75 | 0.821 | 0.775 | 0.501 | 0.783 | 0.415 | 0.401 | 0.335 | 0.227 | 0.158 | 0.362 | 0.311 | 0.303 | 0.253 | 0.253 |
